Laboratory results from paper PMC4279406, “Simultaneous targeting of PI3Kδ and a PI3Kδ-dependent MEK1/2-Erk1/2 pathway for therapy in pediatric B-cell acute lymphoblastic leukemia” (Oncotarget, 2014).

What was measured:
Assay type in all cases: biochemical
[1] = target: T1, AMPK α1 (Homo sapiens, UniProt Q13131); experiment: KinaseProfiler protein kinase activity; conditions: 10 μM X-370
T1 construct: purchased Millipore KinaseProfiler
Experimental: (§1) In vitro kinase profile assays were analyzed by the Kinase Profiler Service (Millipore, United Kingdom) following its guidelines. A GST-tagged human p110δ and regulatory full-length p85 were co-expressed in insect cell Sf9. Recombinant protein was extracted by affinity purification. The PI3K kinase activity was determined in the increasing concentration of ATP and X-370 with PI3-Kinase HTRF™ Assay kit (Millipore) as described previously. […]
(§2) Table S1: Inhibitory activity of X-370 against protein kinases
(§3) kinome at 10 μM. The relative kianse activity left in the presence of 10 μM were shown (Mi llipore
(§4) Kinase activity (% of control) Kinase activity (% of control) Kinase activity (% of control)
(§5) CDK1/cyclinB 97 Lck activated 89 Ret 125

[2] = target: T2, Abl (Homo sapiens, UniProt P00519); experiment: KinaseProfiler protein kinase activity; conditions: 10 μM X-370
T2 construct: purchased Millipore KinaseProfiler
Experimental: as §1, §2, §3, §4, §5

[3] = target: T3, Axl (Homo sapiens, UniProt P30530); experiment: KinaseProfiler protein kinase activity; conditions: 10 μM X-370
T3 construct: purchased Millipore KinaseProfiler
Experimental: as §1, §2, §3, §4, §5

[4] = target: T4, CHK1 (Homo sapiens, UniProt O14757); experiment: KinaseProfiler protein kinase activity; conditions: 10 μM X-370
T4 construct: purchased Millipore KinaseProfiler
T4 sequence (O14757 whole entry): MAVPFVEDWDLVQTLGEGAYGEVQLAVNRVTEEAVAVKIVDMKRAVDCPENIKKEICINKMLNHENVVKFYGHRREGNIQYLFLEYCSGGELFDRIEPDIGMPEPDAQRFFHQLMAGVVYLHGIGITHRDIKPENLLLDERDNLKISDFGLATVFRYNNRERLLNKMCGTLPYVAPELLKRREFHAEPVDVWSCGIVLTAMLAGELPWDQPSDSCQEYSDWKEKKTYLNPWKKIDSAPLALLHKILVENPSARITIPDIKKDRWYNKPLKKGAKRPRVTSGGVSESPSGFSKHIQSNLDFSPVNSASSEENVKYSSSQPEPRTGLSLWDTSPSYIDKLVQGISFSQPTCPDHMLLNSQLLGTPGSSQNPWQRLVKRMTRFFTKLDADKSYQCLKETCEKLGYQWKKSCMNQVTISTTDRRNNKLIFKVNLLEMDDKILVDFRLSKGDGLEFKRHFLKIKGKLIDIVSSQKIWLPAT
Experimental: as §1, §2, §3, §4, §5

[5] = target: T5, EGFR (Homo sapiens, UniProt P00533); experiment: KinaseProfiler protein kinase activity; conditions: 10 μM X-370
T5 construct: purchased Millipore KinaseProfiler
Experimental: as §1, §2, §3, §4, §5

[6] = target: T6, FAK (Homo sapiens, UniProt Q05397); experiment: KinaseProfiler protein kinase activity; conditions: 10 μM X-370
T6 construct: purchased Millipore KinaseProfiler
Experimental: as §1, §2, §3, §4, §5

[7] = target: T7, IGF-1R, activated (Homo sapiens, UniProt P08069); experiment: KinaseProfiler protein kinase activity; conditions: 10 μM X-370
T7 construct: purchased Millipore KinaseProfiler
Experimental: as §1, §2, §3, §4, §5

[8] = target: T8, IR, activated (Homo sapiens, UniProt P06213); experiment: KinaseProfiler protein kinase activity; conditions: 10 μM X-370
T8 construct: purchased Millipore KinaseProfiler
Experimental: as §1, §2, §3, §4, §5

[9] = target: T9, IRAK1 (Homo sapiens, UniProt P51617); experiment: KinaseProfiler protein kinase activity; conditions: 10 μM X-370
T9 construct: purchased Millipore KinaseProfiler
Experimental: as §1, §2, §3, §4, §5

[10] = target: T10, Itk (Homo sapiens, UniProt Q08881); experiment: KinaseProfiler protein kinase activity; conditions: 10 μM X-370
T10 construct: purchased Millipore KinaseProfiler
Experimental: as §1, §2, §3, §4, §5

[11] = target: T11, JAK2 (Homo sapiens, UniProt O60674); experiment: KinaseProfiler protein kinase activity; conditions: 10 μM X-370
T11 construct: purchased Millipore KinaseProfiler
T11 sequence (O60674 whole entry): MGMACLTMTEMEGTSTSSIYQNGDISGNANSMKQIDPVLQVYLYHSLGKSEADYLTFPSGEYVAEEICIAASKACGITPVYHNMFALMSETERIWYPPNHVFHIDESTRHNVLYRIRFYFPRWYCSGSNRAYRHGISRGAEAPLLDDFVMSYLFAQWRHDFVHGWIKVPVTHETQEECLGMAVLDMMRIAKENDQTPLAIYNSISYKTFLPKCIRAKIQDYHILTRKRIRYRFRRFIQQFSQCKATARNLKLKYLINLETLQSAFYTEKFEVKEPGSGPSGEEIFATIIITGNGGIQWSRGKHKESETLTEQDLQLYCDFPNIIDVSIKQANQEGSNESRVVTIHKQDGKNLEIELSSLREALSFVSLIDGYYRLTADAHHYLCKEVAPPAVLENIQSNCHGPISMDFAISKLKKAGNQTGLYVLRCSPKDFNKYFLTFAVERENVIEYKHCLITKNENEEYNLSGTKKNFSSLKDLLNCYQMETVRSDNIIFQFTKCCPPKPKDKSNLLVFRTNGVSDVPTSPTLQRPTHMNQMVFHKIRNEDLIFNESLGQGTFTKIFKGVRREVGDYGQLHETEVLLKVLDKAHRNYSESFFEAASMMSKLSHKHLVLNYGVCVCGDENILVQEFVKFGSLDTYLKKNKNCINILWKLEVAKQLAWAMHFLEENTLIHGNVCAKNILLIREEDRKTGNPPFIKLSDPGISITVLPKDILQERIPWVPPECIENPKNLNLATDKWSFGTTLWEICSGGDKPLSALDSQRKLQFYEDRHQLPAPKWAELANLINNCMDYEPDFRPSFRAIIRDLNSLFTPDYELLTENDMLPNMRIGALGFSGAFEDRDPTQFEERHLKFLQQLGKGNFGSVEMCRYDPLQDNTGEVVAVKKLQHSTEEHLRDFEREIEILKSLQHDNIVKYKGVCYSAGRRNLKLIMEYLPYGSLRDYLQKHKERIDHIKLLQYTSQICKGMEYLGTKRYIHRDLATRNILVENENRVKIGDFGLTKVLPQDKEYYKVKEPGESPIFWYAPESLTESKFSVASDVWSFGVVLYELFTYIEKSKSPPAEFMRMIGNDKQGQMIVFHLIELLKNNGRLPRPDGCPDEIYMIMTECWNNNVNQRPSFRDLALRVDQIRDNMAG
Experimental: as §1, §2, §3, §4, §5

[12] = target: T12, LKB1 (Homo sapiens, UniProt Q15831); experiment: KinaseProfiler protein kinase activity; conditions: 10 μM X-370
T12 construct: purchased Millipore KinaseProfiler
Experimental: as §1, §2, §3, §4, §5

[13] = target: T13, MEK1 (Homo sapiens, UniProt Q02750); experiment: KinaseProfiler protein kinase activity; conditions: 10 μM X-370
T13 construct: purchased Millipore KinaseProfiler
T13 sequence (Q02750 whole entry): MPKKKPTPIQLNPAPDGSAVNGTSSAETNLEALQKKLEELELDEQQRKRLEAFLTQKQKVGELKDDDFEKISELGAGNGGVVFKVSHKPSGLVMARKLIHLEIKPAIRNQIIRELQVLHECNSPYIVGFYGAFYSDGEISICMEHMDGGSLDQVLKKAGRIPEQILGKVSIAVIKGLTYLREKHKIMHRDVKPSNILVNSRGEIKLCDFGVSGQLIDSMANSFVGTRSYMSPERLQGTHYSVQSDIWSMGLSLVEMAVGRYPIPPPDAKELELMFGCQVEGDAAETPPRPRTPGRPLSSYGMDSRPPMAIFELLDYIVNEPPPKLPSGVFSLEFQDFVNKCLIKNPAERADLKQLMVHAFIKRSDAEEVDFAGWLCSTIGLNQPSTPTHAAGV
Experimental: as §1, §2, §3, §4, §5

[14] = target: T14, PDGFR α (Homo sapiens, UniProt P16234); experiment: KinaseProfiler protein kinase activity; conditions: 10 μM X-370
T14 construct: purchased Millipore KinaseProfiler
Experimental: as §1, §2, §3, §4, §5

[15] = target: T15, PDK1 (Homo sapiens, UniProt O15530); experiment: KinaseProfiler protein kinase activity; conditions: 10 μM X-370
T15 construct: purchased Millipore KinaseProfiler
Experimental: as §1, §2, §3, §4, §5

[16] = target: T16, PEK (Homo sapiens, UniProt Q9NZJ5); experiment: KinaseProfiler protein kinase activity; conditions: 10 μM X-370
T16 construct: purchased Millipore KinaseProfiler
Experimental: as §1, §2, §3, §4, §5

[17] = target: T17, PKB α (Homo sapiens, UniProt P31749); experiment: KinaseProfiler protein kinase activity; conditions: 10 μM X-370
T17 construct: purchased Millipore KinaseProfiler
T17 sequence (P31749 whole entry): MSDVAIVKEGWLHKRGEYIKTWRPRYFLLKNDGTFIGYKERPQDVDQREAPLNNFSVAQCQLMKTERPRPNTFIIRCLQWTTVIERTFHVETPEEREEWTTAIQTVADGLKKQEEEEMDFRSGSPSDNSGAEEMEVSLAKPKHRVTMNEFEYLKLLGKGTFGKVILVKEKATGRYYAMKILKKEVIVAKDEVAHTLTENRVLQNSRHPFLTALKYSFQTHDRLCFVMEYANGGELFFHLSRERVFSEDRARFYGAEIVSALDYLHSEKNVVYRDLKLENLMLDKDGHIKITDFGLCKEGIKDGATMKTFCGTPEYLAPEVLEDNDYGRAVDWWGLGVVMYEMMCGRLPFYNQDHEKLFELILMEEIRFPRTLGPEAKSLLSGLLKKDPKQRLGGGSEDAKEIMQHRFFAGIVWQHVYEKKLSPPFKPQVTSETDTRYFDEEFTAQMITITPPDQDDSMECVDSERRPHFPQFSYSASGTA
Experimental: as §1, §2, §3, §4, §5

[18] = target: T18, PKC α (Homo sapiens, UniProt P17252); experiment: KinaseProfiler protein kinase activity; conditions: 10 μM X-370
T18 construct: purchased Millipore KinaseProfiler
Experimental: as §1, §2, §3, §4, §5

[19] = target: T19, PKC μ (Homo sapiens, UniProt Q15139); experiment: KinaseProfiler protein kinase activity; conditions: 10 μM X-370
T19 construct: purchased Millipore KinaseProfiler
Experimental: as §1, §2, §3, §4, §5

[20] = target: T20, Rsk1 (Homo sapiens, UniProt Q15418); experiment: KinaseProfiler protein kinase activity; conditions: 10 μM X-370
T20 construct: purchased Millipore KinaseProfiler
T20 sequence (Q15418 whole entry): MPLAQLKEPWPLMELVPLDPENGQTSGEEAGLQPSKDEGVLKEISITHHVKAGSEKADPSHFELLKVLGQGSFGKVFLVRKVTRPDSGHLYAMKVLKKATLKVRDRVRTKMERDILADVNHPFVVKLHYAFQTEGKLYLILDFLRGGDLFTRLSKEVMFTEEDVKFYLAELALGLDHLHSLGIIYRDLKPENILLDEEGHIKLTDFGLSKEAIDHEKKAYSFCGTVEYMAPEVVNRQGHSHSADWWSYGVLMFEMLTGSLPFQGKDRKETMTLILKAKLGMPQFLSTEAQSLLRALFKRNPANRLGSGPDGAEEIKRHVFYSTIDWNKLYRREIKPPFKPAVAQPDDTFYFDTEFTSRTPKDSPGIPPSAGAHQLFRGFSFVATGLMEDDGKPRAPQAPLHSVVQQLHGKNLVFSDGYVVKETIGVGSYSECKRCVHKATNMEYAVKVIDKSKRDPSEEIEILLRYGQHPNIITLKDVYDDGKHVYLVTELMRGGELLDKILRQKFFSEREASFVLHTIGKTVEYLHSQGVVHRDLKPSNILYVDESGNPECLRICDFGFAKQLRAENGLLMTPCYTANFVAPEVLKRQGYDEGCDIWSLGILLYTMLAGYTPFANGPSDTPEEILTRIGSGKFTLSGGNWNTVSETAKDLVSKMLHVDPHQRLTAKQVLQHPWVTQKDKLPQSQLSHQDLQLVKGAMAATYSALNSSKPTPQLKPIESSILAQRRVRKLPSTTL
Experimental: as §1, §2, §3, §4, §5

[21] = target: T21, TrkA (Homo sapiens, UniProt P04629); experiment: KinaseProfiler protein kinase activity; conditions: 10 μM X-370
T21 construct: purchased Millipore KinaseProfiler
Experimental: as §1, §2, §3, §4, §5

[22] = target: T22, c-RAF (Homo sapiens, UniProt P04049); experiment: KinaseProfiler protein kinase activity; conditions: 10 μM X-370
T22 construct: purchased Millipore KinaseProfiler
Experimental: as §1, §2, §3, §4, §5

[23] = target: T23, mTOR/FKBP12 (Homo sapiens, UniProt P42345); experiment: KinaseProfiler protein kinase activity; conditions: 10 μM X-370
T23 construct: purchased Millipore KinaseProfiler
T23 sequence (P42345 1362-2549 limits assumed): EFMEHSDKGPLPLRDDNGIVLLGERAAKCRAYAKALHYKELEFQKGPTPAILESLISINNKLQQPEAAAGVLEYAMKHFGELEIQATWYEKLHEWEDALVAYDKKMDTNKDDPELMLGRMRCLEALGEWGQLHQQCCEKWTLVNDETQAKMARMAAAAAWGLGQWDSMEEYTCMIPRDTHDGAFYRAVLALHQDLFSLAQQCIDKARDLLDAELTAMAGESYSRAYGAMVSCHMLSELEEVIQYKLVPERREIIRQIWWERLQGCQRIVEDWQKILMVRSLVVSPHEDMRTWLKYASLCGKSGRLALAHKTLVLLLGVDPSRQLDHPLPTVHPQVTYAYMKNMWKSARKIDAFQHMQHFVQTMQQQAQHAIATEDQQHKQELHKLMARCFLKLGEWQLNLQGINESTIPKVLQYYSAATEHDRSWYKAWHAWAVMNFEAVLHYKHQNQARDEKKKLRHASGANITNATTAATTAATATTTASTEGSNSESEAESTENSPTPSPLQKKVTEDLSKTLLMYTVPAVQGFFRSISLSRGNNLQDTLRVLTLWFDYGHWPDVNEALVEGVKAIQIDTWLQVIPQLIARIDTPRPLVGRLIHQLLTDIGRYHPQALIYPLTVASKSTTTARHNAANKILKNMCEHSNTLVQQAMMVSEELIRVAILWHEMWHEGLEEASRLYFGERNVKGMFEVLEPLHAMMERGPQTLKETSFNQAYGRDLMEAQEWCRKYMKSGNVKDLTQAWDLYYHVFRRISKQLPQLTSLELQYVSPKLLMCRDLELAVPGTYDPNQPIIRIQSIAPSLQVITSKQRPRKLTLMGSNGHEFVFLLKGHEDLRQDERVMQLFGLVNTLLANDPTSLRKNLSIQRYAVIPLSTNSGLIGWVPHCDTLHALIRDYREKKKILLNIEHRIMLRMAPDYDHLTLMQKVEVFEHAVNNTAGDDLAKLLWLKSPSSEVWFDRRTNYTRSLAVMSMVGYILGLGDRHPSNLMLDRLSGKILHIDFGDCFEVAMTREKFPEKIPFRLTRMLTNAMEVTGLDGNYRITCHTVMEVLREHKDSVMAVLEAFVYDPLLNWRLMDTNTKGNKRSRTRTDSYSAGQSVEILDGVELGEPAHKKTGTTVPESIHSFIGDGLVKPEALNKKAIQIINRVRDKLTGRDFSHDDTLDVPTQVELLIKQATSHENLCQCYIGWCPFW
Experimental: as §1, §2, §3, §4, §5

[24] = target: T24, p70S6K (Homo sapiens, UniProt P23443); experiment: KinaseProfiler protein kinase activity; conditions: 10 μM X-370
T24 construct: purchased Millipore KinaseProfiler
T24 sequence (P23443 whole entry): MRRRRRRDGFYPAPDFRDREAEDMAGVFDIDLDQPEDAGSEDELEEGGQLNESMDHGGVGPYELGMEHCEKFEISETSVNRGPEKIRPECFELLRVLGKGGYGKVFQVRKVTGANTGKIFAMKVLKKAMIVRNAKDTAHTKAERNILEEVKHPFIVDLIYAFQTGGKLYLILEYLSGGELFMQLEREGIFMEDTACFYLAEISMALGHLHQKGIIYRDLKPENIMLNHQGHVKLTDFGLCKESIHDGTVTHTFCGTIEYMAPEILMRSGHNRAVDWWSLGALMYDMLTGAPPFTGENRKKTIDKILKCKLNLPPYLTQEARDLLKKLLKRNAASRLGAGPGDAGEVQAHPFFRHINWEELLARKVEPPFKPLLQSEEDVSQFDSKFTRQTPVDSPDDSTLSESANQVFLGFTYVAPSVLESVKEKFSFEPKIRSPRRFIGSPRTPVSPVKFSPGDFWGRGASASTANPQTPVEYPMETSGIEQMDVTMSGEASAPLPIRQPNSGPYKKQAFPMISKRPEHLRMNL
Experimental: as §1, §2, §3, §4, §5

[25] = target: PI3Kδ (Homo sapiens, UniProt O00329); experiment: Kinase Profiler lipid kinase IC50; parameters: purchased Millipore (Kinase Profiler Services, United Kingdom); conditions: ATP at Km of the isoform; 10-point half-log dilution from 1000 nM
Experimental: Figure 1 Structure of X-370 and its inhibitory activity against lipid kinases (A) Chemical structure of X-370. (B) X-370 docked to the crystal structure of PI3Kδ. The model was generated based on the co-crystal structure of PI3Kδ and ZSTK474 (PDB ID: 2WXL). (C) IC50 of X-370 against PI3Kδ increased along with ATP concentration. […] Data was obtained from Kinase Profiler Services (Millipore, United Kingdom). Briefly, X-370 was solved in DMSO at a concentration of 10 mM, 10-point kinase inhibitory activity was measured over concentrations in a half-log dilution series started at 1000 nM with ATP at a concentration consistent with Km of each isoform of class I PI3K and IC50s were calculated. Relative kinase activity in the presence of 10 μM X-370 compared to DMSO control was measured for the rest of lipid kinases. […]
In vitro kinase profile assays were analyzed by the Kinase Profiler Service (Millipore, United Kingdom) following its guidelines. […] The PI3K kinase activity was determined in the increasing concentration of ATP and X-370 with PI3-Kinase HTRF™ Assay kit (Millipore) as described previously.

O=C(N1CCCC1)N1CCC(n2cnc3c(-n4c(C(F)F)nc5ccccc54)nc(N4CCOCC4)nc32)CC1 [X-370]
Kinase activity (% of control) [1]: 101 % of control
Kinase activity (% of control) [2]: 130 % of control
Kinase activity (% of control) [3]: 106 % of control
Kinase activity (% of control) [4]: 74 % of control
Kinase activity (% of control) [5]: 90 % of control
Kinase activity (% of control) [6]: 99 % of control
Kinase activity (% of control) [7]: 120 % of control
Kinase activity (% of control) [8]: 111 % of control
Kinase activity (% of control) [9]: 106 % of control
Kinase activity (% of control) [10]: 106 % of control
Kinase activity (% of control) [11]: 109 % of control
Kinase activity (% of control) [12]: 66 % of control
Kinase activity (% of control) [13]: 109 % of control
Kinase activity (% of control) [14]: 121 % of control
Kinase activity (% of control) [15]: 94 % of control
Kinase activity (% of control) [16]: 105 % of control
Kinase activity (% of control) [17]: 87 % of control
Kinase activity (% of control) [18]: 96 % of control
Kinase activity (% of control) [19]: 98 % of control
Kinase activity (% of control) [20]: 88 % of control
Kinase activity (% of control) [21]: 101 % of control
Kinase activity (% of control) [22]: 50 % of control
Kinase activity (% of control) [23]: 48 % of control
Kinase activity (% of control) [24]: 88 % of control
IC50 [25]: 7 nM
